Data as given in US20040010001A1, “Methods and compositions for modulating cell proliferation and cell death” (priority 1999, published 2004).
Where two headings read alike, the source gives them in different places.

Assays:
[1] = system: rat primary tumor cells, monolayers; assay: Drug effect in monolayers of rat primary tumor cells (inhibition of bromodeoxyuridine incorporation); assay type: cell-based; settings: 96 h, read-out: Concentration producing 50% inhibition
[2] = system: Human prostate PC3 tumor cells; assay: aFGF/bFGF-induced resistance and reversal by suramin, sulforhodamine B assay; assay type: cell-based; settings: for Resistance, Folds, aFGF 0.3 ng/ml + bFGF 1 ng/ml / Resistance, Folds, aFGF 1 ng/ml + bFGF 3 ng/ml: no suramin, relative to control
Experimental: The experimental conditions are described briefly below. […] Cell number was measured using the sulforhodamine B assay which measures the total protein concentration. […] The FGF-induced resistance was dependent on the FGF concentrations, with a higher resistance at higher FGF concentrations.

[3] = system: rat lymph node metastases, histocultures; assay: Drug effect in histocultures of rat lymph node metastases (inhibition of 3H-thymidine incorporation); assay type: cell-based
[4] = system: human prostate PC3-LN tumor cells; assay: cells; assay type: cell-based; settings: read-out: IC50 in the monolayer cultures of PC3-LN cells
[5] = system: human PC3-LN lung metastases
Experimental: Animal care was in accordance with the guidelines at the Ohio State University. Several human tumor models were used, including (a) lung metastases derived from intravenous injection of human PC3-LN tumor cells, (b) lung tumors derived from direct injection of human PC3 cells in lungs, and (c) subcutaneously implanted PC3 tumors. Four studies were performed. In all studies, drug treatment was administered intravenously via a tail vein, after the tumor was established. The first and second studies used the intravenous PC3-LN lung metastasis model. Briefly, human PC3-LN cells ([…] in 0.1 ml physiologic saline) were injected intravenously, via a tail vein, into immunodeficient mice. […] Treatment was given twice weekly for three weeks. […] Three days after completion of drug treatments, animals were euthanized and their lungs removed, fixed in Bouin's solution to visualize tumor nodules, and then processed for histologic evaluation. […] The lung surface area (counted as number of pixel) occupied by the tumor was calculated as a fraction of the total lung area, using Adobe PhotoShop. The number of tumor cells in residual tumors and the fraction of apoptotic cells in each tumor were also determined microscopically. Because apoptotic cells disappear over time, a second measure of the extent of apoptosis was the density of non-apoptotic cells in the residual tumors. This was determined by counting the number of non-apoptotic tumor cells in randomly selected microscopic fields at 400× magnification. […] In the case of combination therapy where fewer than 5 tumor nodules remained per animal, all residual cells (between 20 to 600 cells per animal) were counted.

[6] = system: normal rat intestinal epithelial cells (IEC6); assay: Protection of normal intestinal epithelial cells by aFGF/bFGF, BrdU incorporation; assay type: cell-based; settings: drug 24 hours
Experimental: These cells were derived from normal, noncancerous intestinal epithelium. […] Drug effect was measured as the reduction of bromodeoxyuridine incorporation in treated cells relative to untreated controls.

[7] = system: rat lung metastasis cells, monolayers; assay: Drug effect in monolayers of rat lung metastasis cells (inhibition of bromodeoxyuridine incorporation); assay type: cell-based; settings: 96 h, read-out: Concentration producing 50% inhibition
rat MAT-LyLu tumor cells = assay: Reversal of CM-induced resistance by FGF antibodies and suramin, BrdU incorporation; assay type: cell-based; settings: Rattus norvegicus, read-out: IC50 in the presence of 1.6 micromolar suramin; CM of lung metastases histocultures; unchanged in the absence or presence of 5 microgram/ml anti-bFGF antibody
Experimental: The source of CM was lung histocultures for the aFGF experiment, and early monolayer lung cultures for the bFGF experiment. The study used four controls: no CM (left solid curves, open circles); addition of 5 μg/ml aFGF or bFGF antibody but no CM (inverted filled triangle, overlaps with the left control curve); addition of CM but no antibody (right solid curves, open square); addition of CM plus a nonspecific antibody, IgG (5 μg/ml, filled diamond, overlaps with the right CM-control curve). Dotted curves, from right to left, addition of aFGF or bFGF antibody concentrations of 0.05 μg/ml (filled circle); 0.1 μg/ml (filled square); 1 or 0.5 μg/ml (filled triangle); and 5 μg/ml (open inverted triangle). […] Similar results were also found for human PC3 prostate tumor cells.
The first study used specific inhibitors of extracellular aFGF and bFGF, i.e., monoclonal antibodies (FIG. 2A). […] In the presence of the active CM, the bFGF antibody produced a concentration-dependent reversal of the CM-induced chemoresistance, with complete reversal by 5 microgram/ml antibody, whereas a nonspecific antibody (i.e., non-immune rabbit IgG) had no effect. For aFGF, the antibody treatment partially reversed the CM-induced resistance; the maximum reversal was about 60% that was obtained with 1 microgram/ml antibody with no significant additional reversal at a 5-fold higher concentration. The second study evaluated the effect of removing aFGF and/or bFGF from the active CM by immunoprecipitation. Removal of bFGF abolished the resistance, whereas removal of aFGF only partially reversed the CM effect. These two studies indicate that both aFGF and bFGF were involved in the resistance, but had different roles.
This study was performed using the rat MAT-LyLu tumor cells as the model tumor cells and using doxorubicin and paclitaxel as the model anticancer agents. The CM used to induce resistance was collected from histocultures of lung metastases (see Table 1). Five microgram/ml anti-bFGF antibody was added.

[8] = system: rat lung metastases, histocultures; assay: Drug effect in histocultures of rat lung metastases (inhibition of 3H-thymidine incorporation); assay type: cell-based
subcutaneous PC3 tumors = settings: suramin 10 mg/kg, doxorubicin 5 mg/kg, twice weekly for 3 weeks
Experimental: Briefly, PC3 cells (5×10^6 cells) were injected subcutaneously.

human PC3 lung tumors = assay: Lung tumors established by direct injection of PC3 cells into the lungs of immunodeficient mice; assay type: in vivo; settings: doxorubicin three doses of 10 mg/kg, suramin three doses of 20 mg/kg, day 12
Experimental: Animal care was in accordance with the guidelines at the Ohio State University. Several human tumor models were used, including (a) lung metastases derived from intravenous injection of human PC3-LN tumor cells, (b) lung tumors derived from direct injection of human PC3 cells in lungs, and (c) subcutaneously implanted PC3 tumors. Four studies were performed. In all studies, drug treatment was administered intravenously via a tail vein, after the tumor was established. The first and second studies used the intravenous PC3-LN lung metastasis model. Briefly, human PC3-LN cells ([…] in 0.1 ml physiologic saline) were injected intravenously, via a tail vein, into immunodeficient mice. […] Treatment was given twice weekly for three weeks. […] The lung surface area (counted as number of pixel) occupied by the tumor was calculated as a fraction of the total lung area, using Adobe PhotoShop. The number of tumor cells in residual tumors and the fraction of apoptotic cells in each tumor were also determined microscopically. […] This was determined by counting the number of non-apoptotic tumor cells in randomly selected microscopic fields at 400× magnification. […] In the case of combination therapy where fewer than 5 tumor nodules remained per animal, all residual cells (between 20 to 600 cells per animal) were counted.

[9] = Homo sapiens, read-out: IC50, Control (drug treatment only, without FGF treatment), No suramin, drug 96 hours
[10] = Homo sapiens, read-out: IC50, aFGF 0.3 ng/ml + bFGF 1 ng/ml, No suramin, FGF pretreatment 96 hours, drug 96 hours
[11] = Homo sapiens, read-out: IC50, aFGF 1 ng/ml + bFGF 3 ng/ml, No suramin, FGF pretreatment 96 hours, drug 96 hours
[12] = read-out: IC50, Control (without FGF treatment), Suramin, 15 μM, drug 96 hours with 15 μM suramin
[13] = read-out: IC50, aFGF 0.3 ng/ml + bFGF 1 ng/ml, With suramin, FGF pretreatment 96 hours, drug 96 hours with 15 micromolar suramin
[14] = read-out: IC50, aFGF 1 ng/ml + bFGF 3 ng/ml, With suramin, FGF pretreatment 96 hours, drug 96 hours with 15 micromolar suramin
[15] = 24 h, read-out: Concentration producing 50% inhibition (data shown are the concentrations that produced 30% inhibition)
[16] = paclitaxel study: suramin 10 mg/kg, paclitaxel 15 mg/kg, intravenous twice weekly for three weeks
[17] = IEC-6, absence of aFGF and bFGF
[18] = IEC-6, pretreated with 1 ng/ml aFGF and 3 ng/ml bFGF for 96 hours
[19] = doxorubicin study: suramin 10 mg/kg, doxorubicin 5 mg/kg, intravenous twice weekly for three weeks
[20] = suramin 10 mg/kg, doxorubicin 5 mg/kg, intravenous twice weekly for three weeks

| IC50 ([1]; Monolayers (passage 0)) [nM] | IC50 ([1]; Monolayers (passage 1)) [nM] | IC50 ([1]; Monolayers (passage 2)) [nM] | IC50 ([1]; Monolayers (passage 3)) [nM] | IC50 [2, 9] [nM] | IC50 [2, 10] [nM] | IC50 [2, 11] [nM] | IC50 [2, 12] [nM] | IC50 [2, 13] [nM] | IC50 [2, 14] [nM] | IC50 [4] [nM] | IC50 ([7]; Monolayers (passage 0)) [nM] | IC50 ([7]; Monolayers (passage 1)) [nM] | IC50 ([7]; Monolayers (passage 2)) [nM] | IC50 ([7]; Monolayers (passage 3)) [nM] | IC50 (rat MAT-LyLu tumor cells) [nM] | SMILES | Resistance, Folds, aFGF 0.3 ng/ml + bFGF 1 ng/ml [2] [Folds] | Resistance, Folds, aFGF 1 ng/ml + bFGF 3 ng/ml [2] [Folds] | IC50 [6, 17] [nM] | IC50 [6, 18] [nM] | also measured |
| --- | --- | --- | --- | --- | --- | --- | --- | --- | --- | --- | --- | --- | --- | --- | --- | --- | --- | --- | --- | --- | --- |
| 10.7 ± 0.5 | 10.5 ± 0.5 | 10.3 ± 0.8 | 10 ± 0.2 | 2.16 | 6.53 | 12.1 | 2.13 | 1.88 | 2.01 | 8 | 92.4 ± 6.9 | 28.1 ± 0.7 | 21.5 ± 3.7 | 11.4 ± 0.7 | 14 | CC(=O)O[C@H]1C(=O)[C@@]2(C)[C@H]([C@H](OC(=O)c3ccccc3)[C@]3(O)C[C@H](OC(=O)[C@H](O)[C@@H](NC(=O)c4ccccc4)c4ccccc4)C(C)=C1C3(C)C)[C@]1(OC(C)=O)CO[C@@H]1C[C@@H]2O [Paclitaxel] | 3.02 | 5.59 | 491 | 1450 | IC30 (concentration producing 30% inhibition) [3, 15]: > 227 nM; increase of the fraction of apoptotic cells ([5]; paclitaxel 15 mg/kg alone): 13 fold; reduction of the density of nonapoptotic cells ([5]; paclitaxel 15 mg/kg alone): ~70%; % Apoptotic cells per tumor [5, 16]: 53 ± 24 %; Density of nonapoptotic cells in residual tumors, cells/field [5, 16]: 49 ± 35 cells/field; IC30 [8, 15]: > 1800 nM |
| 8 ± 0.5 | 8.6 ± 0.5 | 8 ± 0.4 | 8 ± 0.2 | 27.8 | 145 | 281 | 35.9 | 29.8 | 27.9 | 17 | 77 ± 2.9 | 31.7 ± 8.9 | 16.6 ± 1 | 8 ± 0.5 | 13 | COc1cccc2c1C(=O)c1c(O)c3c(c(O)c1C2=O)C[C@@](O)(C(=O)CO)C[C@@H]3O[C@H]1C[C@H](N)[C@H](O)[C@H](C)O1 [Doxorubicin] | 5.23 | 10.11 | 292 | 544 | effect on tumor growth (subcutaneous PC3 tumors): reduced the tumor growth but did not cause tumor regression; IC50 ([3]; Histocultures, Lymph node, 96 hours, read-out: Concentration producing 50% inhibition): 165 ± 66 nM; reduction of tumor size ([5]; doxorubicin 5 mg/kg alone): ~80%; % Apoptotic cells per tumor [5, 19]: 29 ± 16 %; Density of nonapoptotic cells in residual tumors, cells/field [5, 19]: 77 ± 17 cells/field; % Lung surface area occupied by tumor [5, 20]: 2 ± 1 %; % Tumor-free animals [5, 20]: 0%; tumor-free animals (human PC3 lung tumors): 25% |

| SMILES | IC50 ([1]; Monolayers (passage 0)) [nM] | IC50 ([1]; Monolayers (passage 1)) [nM] | IC50 ([1]; Monolayers (passage 2)) [nM] | IC50 ([1]; Monolayers (passage 3)) [nM] | IC50 [2, 9] [nM] | IC50 [2, 10] [nM] | IC50 [2, 11] [nM] | IC50 [2, 12] [nM] | IC50 [2, 13] [nM] | IC50 [2, 14] [nM] | IC50 [4] [nM] | IC50 ([7]; Monolayers (passage 0)) [nM] | IC50 ([7]; Monolayers (passage 1)) [nM] | IC50 ([7]; Monolayers (passage 2)) [nM] | IC50 ([7]; Monolayers (passage 3)) [nM] | IC50 (rat MAT-LyLu tumor cells) [nM] | Resistance, Folds, aFGF 0.3 ng/ml + bFGF 1 ng/ml [2] [Folds] | Resistance, Folds, aFGF 1 ng/ml + bFGF 3 ng/ml [2] [Folds] | IC50 [6, 17] [nM] | IC50 [6, 18] [nM] | also measured |
| --- | --- | --- | --- | --- | --- | --- | --- | --- | --- | --- | --- | --- | --- | --- | --- | --- | --- | --- | --- | --- | --- |
| O=c1[nH]cc(F)c(=O)[nH]1 [5-Fluorouracil] | 790 ± 40 | 850 ± 30 | 790 ± 60 | 780 ± 40 | 2210 | 5050 | 12600 | 2390 | 2160 | 2140 |  | 2840 ± 240 | 1520 ± 80 | 1200 ± 40 | 810 ± 40 |  | 2.29 | 5.71 |  |  | IC50 ([8]; Histocultures, Lung, 96 hours, read-out: Concentration producing 50% inhibition): 122 ± 25 µM |
